Common to all, as to format: cell-based
The target of one assay is T1, human TLR7 (Homo sapiens, UniProt Q9NYK1).
T1 construct: host or cells: HEK-Blue cells (HEK293-derived reporter line)
T1 sequence (Q9NYK1 27-1049): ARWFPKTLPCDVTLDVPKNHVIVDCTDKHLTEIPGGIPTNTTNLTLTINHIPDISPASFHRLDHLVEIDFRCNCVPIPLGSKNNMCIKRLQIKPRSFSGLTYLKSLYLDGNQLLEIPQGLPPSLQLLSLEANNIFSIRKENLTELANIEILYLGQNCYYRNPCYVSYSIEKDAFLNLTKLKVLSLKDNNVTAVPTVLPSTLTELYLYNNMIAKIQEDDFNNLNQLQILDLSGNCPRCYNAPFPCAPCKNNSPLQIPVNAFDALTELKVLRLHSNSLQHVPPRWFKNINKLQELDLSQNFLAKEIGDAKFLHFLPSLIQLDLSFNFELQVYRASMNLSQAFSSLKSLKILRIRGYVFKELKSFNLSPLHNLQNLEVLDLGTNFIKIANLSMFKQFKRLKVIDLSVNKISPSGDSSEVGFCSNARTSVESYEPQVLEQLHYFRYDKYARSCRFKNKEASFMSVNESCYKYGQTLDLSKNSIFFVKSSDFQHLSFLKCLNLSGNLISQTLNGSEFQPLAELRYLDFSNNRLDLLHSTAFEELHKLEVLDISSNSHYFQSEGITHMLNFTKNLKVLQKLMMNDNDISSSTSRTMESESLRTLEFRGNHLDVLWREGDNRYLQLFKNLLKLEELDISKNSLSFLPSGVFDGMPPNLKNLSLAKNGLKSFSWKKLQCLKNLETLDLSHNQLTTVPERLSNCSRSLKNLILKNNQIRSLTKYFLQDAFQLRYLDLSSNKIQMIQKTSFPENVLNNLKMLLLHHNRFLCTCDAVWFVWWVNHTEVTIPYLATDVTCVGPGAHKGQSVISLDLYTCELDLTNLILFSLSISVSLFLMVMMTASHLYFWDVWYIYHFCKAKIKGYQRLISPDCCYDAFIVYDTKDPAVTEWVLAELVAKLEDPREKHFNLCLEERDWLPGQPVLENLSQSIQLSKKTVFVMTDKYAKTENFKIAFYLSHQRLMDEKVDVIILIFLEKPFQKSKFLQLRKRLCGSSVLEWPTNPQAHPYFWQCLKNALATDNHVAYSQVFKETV
Kind of assay: TLR7 inhibition reporter assay (HEK-Blue cells, SEAP reporter, gardiquimod stimulation). Particulars: HEK-Blue cells overexpressing human TLR7, SEAP reporter, gardiquimod 7.5 μM. The method, boiled down: (§1)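 HEK-Blue cells overexpressing the receptor, with NF-κB/AP-1-driven SEAP, were pre-treated 30 min at room temperature with compound (0.05 nM–50 μM), then stimulated with gardiquimod 7.5 μM (TLR7), R848 15.9 μM (TLR8) or ODN2006 5 nM (TLR9). SEAP was read after 22 h at 37 °C as percent inhibition.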

A further assay has as its target T2, human TLR8 (Homo sapiens, UniProt Q9NR97).
T2 construct: host or cells: HEK-Blue cells (HEK293-derived reporter line)
T2 sequence (Q9NR97 27-1041): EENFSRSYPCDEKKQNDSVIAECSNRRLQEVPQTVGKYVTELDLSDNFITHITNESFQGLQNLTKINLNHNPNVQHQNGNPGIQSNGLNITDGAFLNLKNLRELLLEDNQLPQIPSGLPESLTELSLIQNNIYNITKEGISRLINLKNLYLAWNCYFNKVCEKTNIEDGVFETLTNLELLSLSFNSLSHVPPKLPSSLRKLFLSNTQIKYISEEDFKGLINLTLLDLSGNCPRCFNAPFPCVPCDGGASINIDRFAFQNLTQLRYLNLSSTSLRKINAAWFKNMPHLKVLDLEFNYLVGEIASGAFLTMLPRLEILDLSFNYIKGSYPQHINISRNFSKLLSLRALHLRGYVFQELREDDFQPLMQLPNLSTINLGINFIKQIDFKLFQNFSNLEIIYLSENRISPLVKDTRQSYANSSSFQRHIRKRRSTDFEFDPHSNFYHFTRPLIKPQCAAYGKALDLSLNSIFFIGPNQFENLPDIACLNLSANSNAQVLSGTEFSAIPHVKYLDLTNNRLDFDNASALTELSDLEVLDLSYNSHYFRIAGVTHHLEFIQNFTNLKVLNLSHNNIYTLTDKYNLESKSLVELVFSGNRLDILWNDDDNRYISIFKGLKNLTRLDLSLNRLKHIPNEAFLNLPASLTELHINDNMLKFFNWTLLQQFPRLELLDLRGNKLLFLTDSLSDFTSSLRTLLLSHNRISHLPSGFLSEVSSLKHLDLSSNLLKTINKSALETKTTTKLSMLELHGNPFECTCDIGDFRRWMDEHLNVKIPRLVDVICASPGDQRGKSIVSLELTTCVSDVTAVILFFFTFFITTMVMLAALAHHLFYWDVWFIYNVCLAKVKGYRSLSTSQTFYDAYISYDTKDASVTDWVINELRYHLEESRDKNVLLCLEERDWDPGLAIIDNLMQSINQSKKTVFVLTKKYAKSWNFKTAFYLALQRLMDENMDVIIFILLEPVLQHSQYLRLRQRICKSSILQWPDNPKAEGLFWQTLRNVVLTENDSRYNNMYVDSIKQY
Kind of assay: TLR8 inhibition reporter assay (HEK-Blue cells, SEAP reporter, R848 stimulation). Particulars: HEK-Blue cells overexpressing human TLR8, SEAP reporter, R848 15.9 μM. Put shortly: as §1
A general note: A reporter such as luciferase makes a cellular process visible.

In another assay the target is T3, human TLR9 (Homo sapiens, UniProt Q9NR96).
T3 construct: host or cells: HEK-Blue cells (HEK293-derived reporter line)
T3 sequence (Q9NR96 26-1032): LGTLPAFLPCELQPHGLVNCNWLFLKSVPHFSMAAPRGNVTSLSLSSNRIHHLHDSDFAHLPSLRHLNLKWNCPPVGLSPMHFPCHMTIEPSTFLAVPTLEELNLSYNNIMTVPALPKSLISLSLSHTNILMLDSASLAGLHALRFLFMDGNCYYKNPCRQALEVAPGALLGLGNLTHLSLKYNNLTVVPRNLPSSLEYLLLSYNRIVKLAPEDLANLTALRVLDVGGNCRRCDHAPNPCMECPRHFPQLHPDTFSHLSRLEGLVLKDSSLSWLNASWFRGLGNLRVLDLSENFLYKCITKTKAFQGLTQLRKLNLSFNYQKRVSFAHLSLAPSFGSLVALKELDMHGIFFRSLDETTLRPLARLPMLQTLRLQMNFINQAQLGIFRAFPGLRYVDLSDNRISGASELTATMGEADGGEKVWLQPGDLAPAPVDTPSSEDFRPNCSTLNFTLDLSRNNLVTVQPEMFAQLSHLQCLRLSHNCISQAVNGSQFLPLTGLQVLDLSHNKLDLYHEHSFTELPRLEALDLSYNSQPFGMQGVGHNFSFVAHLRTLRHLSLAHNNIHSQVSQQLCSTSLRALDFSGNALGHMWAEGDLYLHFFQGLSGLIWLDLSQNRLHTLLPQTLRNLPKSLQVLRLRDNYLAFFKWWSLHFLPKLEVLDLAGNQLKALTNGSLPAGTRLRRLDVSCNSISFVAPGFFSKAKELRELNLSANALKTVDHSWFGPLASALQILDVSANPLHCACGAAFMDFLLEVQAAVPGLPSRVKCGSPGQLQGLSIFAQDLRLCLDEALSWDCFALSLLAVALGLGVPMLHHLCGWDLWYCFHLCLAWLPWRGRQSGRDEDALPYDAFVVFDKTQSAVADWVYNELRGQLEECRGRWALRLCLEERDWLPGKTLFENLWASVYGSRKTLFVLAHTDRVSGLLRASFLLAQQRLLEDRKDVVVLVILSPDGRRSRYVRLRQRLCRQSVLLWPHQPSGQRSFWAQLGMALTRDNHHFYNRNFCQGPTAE
Kind of assay: TLR9 inhibition reporter assay (HEK-Blue cells, SEAP reporter, ODN2006 stimulation). Particulars: HEK-Blue cells overexpressing human TLR9, SEAP reporter, ODN2006 5 nM. The method, boiled down:
as §1

For 15 molecules, IC50 results are on record in patent US11739098B2 (BRISTOL-MYERS SQUIBB COMPANY, priority 2017, dated 2023).

What is called IC50 is the midpoint of a concentration-inhibition curve. Low readings indicate inhibition by little substance, high ones a need for much substance. Consider `Cc1cc(-c2[nH]c3ccc(C4CCNCC4)cc3c2C(C)C)cc2ncc(O)nc12` [Example 87, 6-(3-isopropyl-5-(piperidin-4-yl)-1H-indol-2-yl)-8-methylquinoxalin-2-ol], for which the IC50 was < 0.1 µM against human TLR7, < 0.1 µM against human TLR8 and 0.1 to 1 µM on human TLR9.

Consider `Cc1cc(-c2[nH]c3ccc(C4CCNCC4)cc3c2C(C)C)cc2nccnc12` [Example 88, 7-(3-isopropyl-5-(piperidin-4-yl)-1H-indol-2-yl)-5-methylquinoxaline], for which the IC50 at human TLR7 was < 0.1 µM; at human TLR8, 0.1 to 1 µM; against human TLR9, 1 to 50 µM.

As to `CC(C)c1c(-c2ccc3c(c2)oc(=O)n3C)[nH]c2ccc(C3CCNCC3)cc12` [Example 89, 6-(3-isopropyl-5-(piperidin-4-yl)-1H-indol-2-yl)-3-methylbenzo[d]oxazol-2(3H)-one], the results for the IC50 on human TLR7, against human TLR8 and against human TLR9 were 0.1 to 1 µM, < 0.1 µM and 0.1 to 1 µM, respectively.

Regarding `Cc1cc(-c2[nH]c3ccc(C4CCNCC4)cc3c2C(C)C)cc2c1oc(=O)n2C` [Example 90, 5-(3-isopropyl-5-(piperidin-4-yl)-1H-indol-2-yl)-3,7-dimethylbenzo[d]oxazol-2(3H)-one], the IC50 against human TLR7 was < 0.1 µM; on human TLR8 it was 0.1 to 1 µM; against human TLR9, 1 to 50 µM.

As to `Cc1cc(-c2[nH]c3ccc(C4CCNCC4)cc3c2C(C)C)cc2[nH]c(=O)oc12` [Example 91, 5-(3-isopropyl-5-(piperidin-4-yl)-1H-indol-2-yl)-7-methylbenzo[d]oxazol-2(3H)-one], the IC50 on human TLR7, against human TLR8 and against human TLR9 was 0.1 to 1 µM throughout.

In the case of `Cc1nc2cc(-c3[nH]c4ccc(C5CCNCC5)cc4c3C(C)C)cc(C)c2o1` [Example 92, 5-(3-isopropyl-5-(piperidin-4-yl)-1H-indol-2-yl)-2,7-dimethylbenzo[d]oxazole], the IC50 was < 0.1 µM at human TLR7, 0.1 to 1 µM against human TLR8 and 1 to 50 µM against human TLR9.

On to `CC(C)c1c(-c2ccc3[nH]nc(N)c3c2)[nH]c2ccc(C3CCNCC3)cc12` [Example 93, 5-(3-isopropyl-5-(piperidin-4-yl)-1H-indol-2-yl)-1H-indazol-3-amine], for which the IC50 against human TLR7 is < 0.1 µM; on human TLR8 it was < 0.1 µM; against human TLR9, 0.1 to 1 µM.

With `Cc1c(-c2[nH]c3ccc(C4CCNCC4)cc3c2C(C)C)ccc2c1cnn2C` [Example 94, 5-(3-isopropyl-5-(piperidin-4-yl)-1H-indol-2-yl)-1,4-dimethyl-1H-indazole], the IC50 against human TLR7 was < 0.1 µM; on human TLR8, < 0.1 µM; on human TLR9, 1 to 50 µM.

Regarding `CCc1c(-c2ccc3onc(N)c3c2)[nH]c2ccc(C3CCNCC3)cc12` [Example 95, 5-(3-ethyl-5-(piperidin-4-yl)-1H-indol-2-yl)benzo[d]isoxazol-3-amine], the IC50 was 1 to 50 µM on human TLR7, 0.1 to 1 µM on human TLR8 and 1 to 50 µM against human TLR9.

Take `CC(C)c1c(-c2cnc3c(cnn3C)c2)[nH]c2ccc(C3CCNCC3)cc12` [Example 96, 5-(3-isopropyl-5-(piperidin-4-yl)-1H-indol-2-yl)-1-methyl-1H-pyrazolo[3,4-b]pyridine]: the IC50 against human TLR7 is < 0.1 µM; at human TLR8, < 0.1 µM; against human TLR9, 0.1 to 1 µM.

Consider `CCc1c(-c2cc3cnn(C)c3cn2)[nH]c2ccc(C3CCNCC3)cc12` [Example 97, 5-(3-ethyl-5-(piperidin-4-yl)-1H-indol-2-yl)-1-methyl-1H-pyrazolo[3,4-c]pyridine], for which the IC50 on human TLR7 lay within 1 to 50 µM; on human TLR8, 0.1 to 1 µM; on human TLR9, 1 to 50 µM.

For the molecule `CCc1c(-c2cc3cn(C)nc3cn2)[nH]c2ccc(C3CCNCC3)cc12` [Example 98, 5-(3-ethyl-5-(piperidin-4-yl)-1H-indol-2-yl)-2-methyl-2H-pyrazolo[3,4-c]pyridine], the IC50 against human TLR7 lay in the range of 1 to 50 µM; on human TLR8 it was 0.1 to 1 µM; on human TLR9, 1 to 50 µM.

In the case of `CC(C)c1c(-c2cnc3[nH]nc(N)c3c2)[nH]c2ccc(C3CCNCC3)cc12` [Example 99, 5-(3-isopropyl-5-(piperidin-4-yl)-1H-indol-2-yl)-1H-pyrazolo[3,4-b]pyridin-3-amine], the IC50 against human TLR7 lay within 0.1 to 1 µM; at human TLR8 it was 0.1 to 1 µM; at human TLR9 it was 1 to 50 µM.

Take `CCc1c(-c2cccc3c2cnn3C)[nH]c2ccc(C3CCNCC3)cc12` [Example 100, 4-(3-ethyl-5-(piperidin-4-yl)-1H-indol-2-yl)-1-methyl-1H-indazole]: the half-inhibitory concentration (IC50) at human TLR7 is 1 to 50 µM; against human TLR8, > 50 µM; on human TLR9 it was 1 to 50 µM.

Consider `Cc1cc(-c2[nH]c3ccc(C4CCNCC4)cc3c2C(C)C)nc2scnc12` [Example 101, 5-(3-isopropyl-5-(piperidin-4-yl)-1H-indol-2-yl)-7-methylthiazolo[5,4-b]pyridine], for which the IC50 is < 0.1 µM at human TLR7, < 0.1 µM against human TLR8 and 1 to 50 µM against human TLR9.
